For one test, the target named is JAK1 (Homo sapiens (Human), UniProt P23458). As to the kind of experiment: Jak Biochemical HTRF Assay, JAK1. The settings on record: HTRF biochemical assay, GST-tagged catalytic domain; top concentration tested […]; read-out: JAK1 IC50. The source says: (§1) Jak Biochemical HTRF Assay Protocol
(§2) Subsequent reagent additions employed an Agilent Bravo.
For orientation: Time-resolved FRET reads energy transfer from a long-lived donor to a nearby acceptor.

The target of the next test is JAK2 (Homo sapiens (Human), UniProt O60674). As to the kind of experiment: Jak Biochemical HTRF Assay, JAK2. The settings on record: HTRF biochemical assay, GST-tagged catalytic domain; top concentration tested […].
Excerpt: as §1, §2

Molecules are shown by their SMILES.

For orientation: IC50 means the concentration needed to halve the response being measured.

JAK2, sequence (O60674 849-1124): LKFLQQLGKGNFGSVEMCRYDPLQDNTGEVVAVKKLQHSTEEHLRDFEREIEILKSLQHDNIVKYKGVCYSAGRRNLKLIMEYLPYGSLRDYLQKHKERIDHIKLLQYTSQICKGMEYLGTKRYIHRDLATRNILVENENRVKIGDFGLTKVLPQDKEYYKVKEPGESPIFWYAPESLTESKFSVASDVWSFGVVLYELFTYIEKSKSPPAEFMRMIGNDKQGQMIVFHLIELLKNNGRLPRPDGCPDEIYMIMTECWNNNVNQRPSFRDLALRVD
JAK1, sequence (P23458 875-1153): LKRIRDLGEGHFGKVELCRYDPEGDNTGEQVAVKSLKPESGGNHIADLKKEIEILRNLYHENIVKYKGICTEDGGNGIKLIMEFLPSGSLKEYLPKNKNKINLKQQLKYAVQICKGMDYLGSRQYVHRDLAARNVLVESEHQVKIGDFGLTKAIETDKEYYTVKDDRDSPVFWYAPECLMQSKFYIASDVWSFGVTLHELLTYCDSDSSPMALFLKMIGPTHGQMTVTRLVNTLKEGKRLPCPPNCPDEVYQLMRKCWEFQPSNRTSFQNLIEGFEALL

As for `COc1ccccc1COC(=O)N1CC(CC#N)(n2cc(C(N)=O)c(Nc3ccccc3)n2)C1` [Example 30-69, 2-methoxybenzyl 3-[4-carbamoyl-3-(phenylamino)-1H-pyrazol-1-yl]-3-(cyanomethyl)azetidine-1-carboxylate], the IC50 at JAK1 worked out at 0.031 µM; on JAK2, 0.671 µM.

As to `N#CCC1(n2cc(C(N)=O)c(Nc3ccnc(F)c3)n2)CCN(C(=O)CC(F)(F)F)CC1` [Example 35-2, 1-(4-(cyanomethyl)-1-(3,3,3-trifluoropropanoyl)piperidin-4-yl)-3-(2-fluoropyridin-4-ylamino)-1H-pyrazole-4-carboxamide], the IC50 came out at 0.0002 µM at JAK1 and 0.01 µM against JAK2.

Turning to `N#CCC1(n2cc(C(N)=O)c(Nc3ccnc(F)c3)n2)CCN(Cc2ccnc3[nH]ccc23)CC1` [Example 22-18, 1-[4-(cyanomethyl)-1-(1H-pyrrolo[2,3-b]pyridin-4-ylmethyl)piperidin-4-yl]-3-[(2-fluoropyridin-4-yl)amino]-1H-pyrazole-4-carboxamide], the figures for the IC50 on JAK1 and on JAK2 were 0.002 µM and 0.072 µM, respectively.

As for `N#CCC1(n2cc(C(N)=O)c(Nc3ccnc(F)c3)n2)CCC(NCc2ccc(Cl)cc2)CC1` (stereo not drawn) [Example 41-9, Cis or trans 1-{4-[(4-chlorobenzyl)amino]-1-(cyanomethyl)cyclohexyl}-3-[(2-fluoropyridin-4-yl)amino]-1H-pyrazole-4-carboxamide], the IC50 at JAK1 came to 0.015 µM; at JAK2, 0.44 µM.

In the case of `N#CCC1(n2cc(C(N)=O)c(Nc3ccccc3)n2)CCN(C(=O)c2cccc3ccccc23)CC1` [Example 34-25, 1-[4-(cyanomethyl)-1-(naphthalene-1-ylcarbonyl)piperidin-4-yl]-3-(phenylamino)-1H-pyrazole-4-carboxamide], the figures for the IC50 on JAK1 and at JAK2 were 0.028 µM and 0.35 µM, respectively.

As for `N#CCC1(n2cc(C(N)=O)c(Nc3ccnc(F)c3)n2)CCC(Nc2ccc(F)cc2F)CC1` (stereo not drawn) [Example 40-37, Cis or trans 1-{1-(cyanomethyl)-4-[(2,4-difluorophenyl)amino]cyclohexyl}-3-[(2-fluoropyridin-4-yl)amino]-1H-pyrazole-4-carboxamide], the IC50 was 0.016 µM at JAK1 and 0.506 µM on JAK2.

Take `N#CCC1(n2cc(C(N)=O)c(Nc3ccc(F)cc3)n2)CCN(Cc2cccc(F)n2)CC1` [Example 22-46, 1-{4-(cyanomethyl)-1-[(6-fluoropyridin-2-yl)methyl]piperidin-4-yl}-3-[(4-fluorophenyl)amino]-1H-pyrazole-4-carboxamide]: the IC50 at JAK1 was found to be 0.003 µM; against JAK2, 0.095 µM.

With `CC(C)(C)OC(=O)N1CC[C@@](CC#N)(n2cc(C(N)=O)c(Nc3ccc(F)cc3)n2)[C@H](F)C1` (single isomer, unassigned) [Example 47-3, tert-butyl (3R,4S or 3S,4R)-4-{4-carbamoyl-3-[(4-fluorophenyl)amino]-1H-pyrazol-1-yl}-4-(cyanomethyl)-3-fluoropiperidine-1-carboxylate], the IC50 came to 0.002 µM at JAK1 and 0.032 µM against JAK2.

For the compound `N#CCC1(n2cc(C(N)=O)c(Nc3ccc(F)cc3)n2)CCN(C(=O)OCC(F)(F)F)CC1` [Example 30-2, 2,2,2-trifluoroethyl 4-(4-carbamoyl-3-(4-fluorophenylamino)-1H-pyrazol-1-yl)-4-(cyanomethyl)piperidine-1-carboxylate], the IC50 at JAK1 turned out to be 0.0003 µM; against JAK2 it was 0.015 µM.

`CC(C)(C)OC(=O)N1CCC(CC#N)(n2cc(C(N)=O)c(Nc3ccc(F)c(F)c3)n2)CC1` [Example 9-28, tert-butyl 4-{4-carbamoyl-3-[(3,4-difluorophenyl)amino]-1H-pyrazol-1-yl}-4-(cyanomethyl)piperidine-1-carboxylate]: the IC50 was found to be 0.001 µM at JAK1 and 0.024 µM against JAK2.

With `N#CCC1(n2cc(C(N)=O)c(Nc3ccccc3)n2)CCN(S(=O)(=O)c2ccccc2Cl)CC1` [Example 37-12, 1-{1-[(2-chlorophenyl)sulfonyl]-4-(cyanomethyl)piperidin-4-yl}-3-(phenylamino)-1H-pyrazole-4-carboxamide], the IC50 stood at 0.003 µM on JAK1 and 0.009 µM against JAK2.

The record behind these values is patent publication US9328099B2, “Cyanomethylpyrazole carboxamides as janus kinase inhibitors” (Merck Sharp & Dohme Corp., priority 2011, dated 2016).
